Test results: US8802710B2, “Metronidazole esters for treating rosacea” (Galderma Research & Development, priority 2010, dated 2014)

Key:
[1] = test system: oedema induced by arachidonic acid (AA) on mouse ear; assay: Model of acute inflammation on mouse ear: arachidonic acid-induced oedema; format: in vivo; details: for IC50 (concentration at which 50% inhibition of the oedema induced by AA alone is observed): topical on mouse ear, oedema measured 1 hour after application, % weight per volume of solution
Procedure: The anti-inflammatory activities of the compound of formula (I) in racemic form, of the S enantiomer of the compound of formula (I), of metronidazole and of flurbiprofen were measured in an in vivo test performed on a mouse model. This model consists in inducing inflammation of the mouse ear with a single application of arachidonic acid (AA). Female Balb/c ByJlco mice are used. The oedema is induced by applying to the mouse's ear 20 μL of AA dissolved to 4% in a 1/1 THF/methanol mixture. The anti-inflammatory activities of the S enantiomer of the compound of formula (I), of the compound of formula (I) in racemic form, of metronidazole and of flurbiprofen were evaluated after topical application onto the inner face of the mouse's ear of 20 μL of a solution of the compound in a 1/1 THF/methanol mixture containing 4% AA.
Solutions containing 0.01%; 0.03%; 0.1%; 0.3%; 1% and 2% of the test compound are thus prepared. The percentages correspond to the weight of the test compound per volume of solution. The oedema is evaluated, 1 hour after application, by measuring the thickness of the ear using an Oditest® micrometer. The oedema induced by AA alone is evaluated, 1 hour after application, by measuring the thickness of the ear using an Oditest® micrometer. It is evaluated relative to a group comprising only the vehicle (1/1 THF/methanol).
The inhibition of the oedema is expressed as a percentage of reduction, by the test molecule and at the test concentration, of the oedema induced by AA alone.
The IC50 corresponds to the concentration (or dose) at which 50% inhibition of the oedema induced by AA alone is observed.

[2] = test system: oedema induced by TPA (phorbol 12-myristate-13-acetate) on mouse ear; assay: Model of acute inflammation on mouse ear: oedema induced by TPA; format: in vivo; details: for IC50 (concentration at which 50% inhibition of the oedema induced by TPA alone is observed): applied with 0.01% TPA in ethanol, oedema measured 6 hours after application; for inhibition of the TPA-induced inflammation: concentration of 1%, TPA test in mice
Procedure: The anti-inflammatory activities of the compound of formula (I) in racemic form, of metronidazole and of flurbiprofen (racemic) were measured in an in vivo test performed on a mouse model.
The model used is the model of mouse ear inflammation induced by a single application of TPA (phorbol 12-myristate-13-acetate). Female Balb/c ByJlco mice are used.
The oedema is induced by applying to the ear 20 μl of 0.01% TPA dissolved in ethanol.
The racemic compound of formula (I) is dissolved, at the desired concentration, in the 0.01% TPA solution and thus applied to a group of mice at the same time as the TPA.
Similarly, flurbiprofen (racemic) is dissolved, at the desired concentration, in the 0.01% TPA solution and thus applied to another group of mice at the same time as the TPA.
Finally, metronidazole is dissolved, at the desired concentration, in the 0.01% TPA solution and thus applied to another group of mice at the same time as the TPA.
The oedema is evaluated, 6 hours after application, by measuring the thickness of the ear using an Oditest® micrometer.
The TPA-induced oedema is evaluated relative to the ethanol vehicle group. The inhibition, with the racemic compound of formula (I), with flurbiprofen (racemic) or with metronidazole, of the oedema induced by TPA alone is expressed by the IC50.
The IC50 corresponds to the concentration (or dose) at which 50% inhibition of the oedema induced by TPA alone is observed.

[3] = test system: human neonatal keratinocytes; assay: Stability on keratinocyte cultures; format: in vitro ADME; details: human keratinocyte cultures
Procedure: (§1) The stability on keratinocyte cultures is evaluated using human neonatal keratinocytes (Cell'N Tech) cultured in a 75 cm^2 flask and detached at 90-100% of confluence with vegetable trypsin (trypLE GIBCO). The compound of formula (I) was tested at 2 μM in the medium CNT-057 (Cell'N Tech) supplemented with 0.1% pluronic acid in 24-well plates. The final DMSO concentration is 0.1%. Degradation kinetics are performed with a Tecan EVO robot over 24 hours. The samples taken are then assayed by LC/MS/MS (Micromass) in comparison with a calibration range of the test product, prepared under the same conditions as the samples (⅓ culture medium and ⅔ methanol). The chromatographic conditions are optimized for each product. An assay of the appearance of metronidazole is also performed using these same samples.

[4] = Stability on keratinocyte cultures; format: in vitro ADME, human; details: 2 μM, human neonatal keratinocyte culture, kinetics over 24 hours, LC/MS/MS; read-out: half-life time (t1/2) (converted)
Procedure: as §1

SMILES: Cc1ncc([N+](=O)[O-])n1CCOC(=O)C(C)c1ccc(-c2ccccc2)c(F)c1 (racemic) [2-(2-methyl-5-nitroimidazol-1-yl)ethyl 2-(2-fluorobiphenyl-4-yl)propionate]
- anti-inflammatory activity compared with flurbiprofen ([1]; dose of 1%, AA-induced mouse ear oedema, result in words): equivalent to that of flurbiprofen (racemic) at the 0.1% dose
- IC50 (concentration at which 50% inhibition of the oedema induced by TPA alone is observed) [2]: 0.22%
- hydrolysis / stability of the ester on keratinocyte cultures [3]: specifically cleaved in keratinocytes
- half-life at 2 μM [4]: 6 h

SMILES: CC(C(=O)O)c1ccc(-c2ccccc2)c(F)c1 (racemic) [flurbiprofen (racemic), flurbiprofen]
- inhibition of the oedema induced by AA alone ([1]; dose of 0.1%, topical, 1 hour after application): 60%
- IC50 (concentration at which 50% inhibition of the oedema induced by AA alone is observed) [1]: 0.037%
- IC50 (concentration at which 50% inhibition of the oedema induced by TPA alone is observed) [2]: 0.22%

SMILES: Cc1ncc([N+](=O)[O-])n1CCOC(=O)[C@H](C)c1ccc(-c2ccccc2)c(F)c1 [2-(2-methyl-5-nitroimidazol-1-yl)ethyl (R)-2-(2-fluorobiphenyl-4-yl)propionate]
- inhibition of the TPA-induced inflammation [2]: 85%

SMILES: Cc1ncc([N+](=O)[O-])n1CCOC(=O)[C@@H](C)c1ccc(-c2ccccc2)c(F)c1 [2-(2-methyl-5-nitroimidazol-1-yl)ethyl (S)-2-(2-fluorobiphenyl-4-yl)propionate]
- IC50 (concentration at which 50% inhibition of the oedema induced by AA alone is observed) [1]: 1%
- inhibition of the TPA-induced inflammation [2]: 95%
- half-life at 2 μM [4]: 18 h

SMILES: C[C@@H](C(=O)O)c1ccc(-c2ccccc2)c(F)c1 [(R)-flurbiprofen]
- inhibition of the TPA-induced inflammation [2]: 80%

SMILES: C[C@H](C(=O)O)c1ccc(-c2ccccc2)c(F)c1 [(S)-flurbiprofen]
- inhibition of the TPA-induced inflammation [2]: 70%

SMILES: Cc1ncc([N+](=O)[O-])n1CCOC(=O)c1cc(-c2ccc(F)cc2F)ccc1O [metronidazole ester with diflunisal]
- hydrolysis / stability of the ester on keratinocyte cultures [3]: do not become hydrolysed

SMILES: COc1ccc2c(c1)c(CC(=O)OCCn1c([N+](=O)[O-])cnc1C)c(C)n2C(=O)c1ccc(Cl)cc1 [metronidazole ester with indomethacin]
- hydrolysis / stability of the ester on keratinocyte cultures [3]: do not become hydrolysed

SMILES: Cc1ncc([N+](=O)[O-])n1CCOC(=O)C1CCn2c(C(=O)c3ccccc3)ccc21 (stereo not shown) [metronidazole ester with ketorolac]
- hydrolysis / stability of the ester on keratinocyte cultures [3]: do not become hydrolysed

SMILES: Cc1ncc([N+](=O)[O-])n1CCOC(=O)c1cccnc1Nc1cccc(C(F)(F)F)c1 [metronidazole ester with niflumic acid]
- hydrolysis / stability of the ester on keratinocyte cultures [3]: do not become hydrolysed

SMILES: Cc1ncc([N+](=O)[O-])n1CCO [metronidazole]
- anti-inflammatory activity ([1]; AA-induced mouse ear oedema, result in words): no anti-inflammatory activity
- anti-inflammatory activity ([2]; TPA-induced mouse ear oedema, result in words): no anti-inflammatory activity
